These results are taken from patent US20070202487A1, “Assay for phospholipidosis” (Cytokinetics, Inc., A Delaware Corporation, priority 2006, published 2007).

Read-outs that look alike come from different tables or passages of the source.

The subject of data set [1] is hepatocytes. The method, then: As described further below, in certain embodiments, the number of bright and/or punctate regions in the lysosomal marker image is used as an indication of phospholipidosis.
An exemplary procedure for preparing hepatocyte cultures will now be described. Specifically, the procedure involves the use of primary rat hepatocytes as follows:
11. Twenty three thousand cells/well are plated in a 96 flat well plate pre-coated with collagen I (BD Biosciences, San Jose, Calif. or CellzDirect, Tucson, Ariz.). The plates are incubated at 37° C./5% CO2 for two hours. At the end of the two hour incubation, plating medium is aspirated and cold Hepatozyme medium containing 250 micrograms/ml of Matrigel (BD Biosciences) is added, and the plates are incubated overnight.
The following example is a procedure for fixing and staining primary rat hepatocytes to visualize nuclei, lysotracker, and Alexa 647 nm succinimidyl ester reagent (A647SE). A647SE is used to segment individual hepatocytes within an image. • 1) At 24 hr after compound addition to cells, 50 ul of Hepatozyme medium (prewarmed to 37° C.) containing 187.5 nM of lysotracker dye is added to each well. Plates are placed back to incubator for 30 min, then 150 μl of fix solution (8% paraformaldehyde, in 1× PBS) and incubate at room temperature for 30 min. • 2) Aspirate the fix solution, and add 350 μl of wash buffer (1× PBS, 0.02% Triton X-100) to each well. Aspirate and dispense wash buffer 2 times. • 3) Aspirate off the wash buffer, and add 100 ul per well of A647SE mix: 0.5 μg/ml A647SE (stock 10 mg/ml) and 1:1000 dilution of Hoechst 33342 (stock 5 mg/ml) in wash buffer. Incubate at room temperature for one hour in the dark. • 4) Aspirate the staining solution, and add 350 μl of wash buffer (1× PBS, […]) to each well. Aspirate and dispense wash buffer 2 times. Leave the last wash buffer in the well. • 5) Seal the plate and store at room temperature in the dark prior to imaging.
In certain embodiments, a stimulus response curve may be generated for a stimulus of interest. In certain embodiments, the stimulus response curve plots the feature or features used to characterize phospholipidosis (e.g., granularity or mean intensity) against concentrations of a stimulus.

Data set [2] has as its system hepatocytes. Put plainly: Cell death of hepatocytes treated with compound. Format: cell-based. As to conditions: Rattus norvegicus, Hepatocyte, arrow in FIG. 5A.

Regarding `C[C@H](CCC(=O)NCCS(=O)(=O)O)[C@H]1CC[C@H]2[C@@H]3CC[C@@H]4C[C@H](O)CC[C@]4(C)[C@H]3CC[C@]12C` [Taurolithocholate, taurolithocholate], in data set [1] (at several concentrations below EC50 of cell death, FIG. 2B, versus DMSO control), the “proportion of bright/punctate cells (LysoTracker images)” value was “decrease”.
Take `CN(C)CCCN1c2ccccc2Sc2ccc(Cl)cc21` [chlorpromazine]: the IC50 – broadly, the midpoint of a concentration-inhibition curve – in data set [2] is 25 µM. Besides, in data set [1], the “induction of phospholipidosis as concluded from the response curves” value was “induced phospholipidosis”, the “mean intensity of the LysoTracker marker (per-cell basis) versus concentration” value was “increases”, the “proportion of bright/punctate cells (LysoTracker images)” value was “increase” and the “total granularity versus concentration” value is reported as “spikes”.
